Results published in article PMC5100903, “Tissue Kallikrein Inhibitors Based on the Sunflower Trypsin Inhibitor Scaffold – A Potential Therapeutic Intervention for Skin Diseases” (PLoS ONE, 2016).
“Also recorded” adds a separate entry of the source. Positions of bridges follow the written chain, without caps; N, C: chain ends. Residues, ends and D or L forms follow the SMILES beside them.

Tests used:
[1] = test system: in vitro skin equivalent cultures (primary human keratinocytes and fibroblasts); test: Organotypic skin culture, in-situ zymography with casein substrate; format: cell-based; conditions: 10 μM in PBS, topical, once every day for two days
Procedure: Primary keratinocytes and fibroblasts were isolated from skin biopsies from healthy donors and incubated with 0.25% trypsin/EDTA 3 hours for keratinocytes and Serva 50U/ml collagenase NB6 (Universal Biologicals, Cambridge, UK) 2 hours for fibroblasts. Isolated primary keratinocytes were then co-cultured with lethally irradiated 3T3 mouse fibroblasts and grown in keratinocyte culture media. Primary keratinocytes and fibroblasts from normal donors’ skin biopsies were cultivated in vitro on de-epidermalized dermal matrix as described. Briefly, dermal fibroblasts derived from skin biopsies were seeded onto the reticular side of the de-epidermalized dermal matrix and keratinocytes were seeded on the papillary side. After keratinocytes reached confluence, the culture was lifted at the air-liquid interface for 14 days. The OTCs were then topically treated with Analogue 6 (10 μL, 10 μM) or 1xPBS for the untreated control in two doses each separated by 24hrs. Following treatment, the cultures were harvest and embedded in O.C.T.™ (Sakura Finetek, Netherlands) for cryosections. The cryosections (7 μm thick) of the treated and untreated tissues were washed with 1xPBS. […] Sections were examined under a Leica DM LB fluorescence microscope and the images processed using ImageJ (v1.46).

N-tert skin cells = test: KLK5-induced IL-8 secretion, ELISA; format: cell-based, human; conditions: KLK5 300 nM, Analogue 6 1515 nM (molar excess 5:1), N-tert cells, 6, 24 and 48 hours
KLK5 [2] = molecular target: T1, KLK5 (Homo sapiens, UniProt Q9Y337); test: biochemical
T1 construct: purchased Novoprotein
T1 sequence (Q9Y337 23-293): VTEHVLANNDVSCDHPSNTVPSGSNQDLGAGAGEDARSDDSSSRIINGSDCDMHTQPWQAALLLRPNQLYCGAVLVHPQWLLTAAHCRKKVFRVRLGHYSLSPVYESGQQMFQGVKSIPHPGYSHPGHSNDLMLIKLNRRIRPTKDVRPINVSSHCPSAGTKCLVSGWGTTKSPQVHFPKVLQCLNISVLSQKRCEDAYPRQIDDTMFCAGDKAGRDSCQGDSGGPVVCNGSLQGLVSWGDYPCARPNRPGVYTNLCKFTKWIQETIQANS
Procedure: (§1) All assays were performed on 96-well microplates and the change in relative fluorescence unit (RFU) was measured by fluorescence spectrometer (BMG FLUOstar OPTIMA). The excitation/emission wavelength was 360/460 nm for the substrate Boc-VPR-AMC (Bachem AG, Hauptstrasse, Switzerland) and MeOSuc-AAPV-AMC (Bachem AG, Hauptstrasse, Switzerland) and 485/520 nm for BODIPY_FL casein (Invitrogen, Carlsbad, US). Stock solution of Boc-VPR-AMC was prepared by dissolving the solid in dimethyl sulfoxide to 100 mM and 10 mM for MeOSuc-AAPV. For BODIPY_FL casein, it was reconstituted to 1 mg/mL in 1xPBS. […] The % of inhibition was calculated by the following equation: % of Inhibition=(1−(Sample RFU − Min RFU)/(Max RFU − Min RFU)) X100
(§2) Each inhibition curves were done in triplicates with a minimum of five concentration points fitted. Fitting of each curve was done using SigmaPlot with the Four Parameter Logistic Function and the IC50 calculated. […] All tested compounds were reconstituted to stock solution in water.
The diluent for all the tested compounds, protein and substrate was 1xPBS. Serially diluted ligands were mixed with diluted recombinant KLK5 (10 nM f/c). The ligand-protein mixtures were incubated on ice for one hour and 19.5 μL was pipetted into a well of a 96-well microplate in triplicates. To start the reaction, 100 μL of the diluted (41.6 μM f/c) Boc-VPR-AMC substrate solution (contained 0.05% v/v Brij35) was added. The plate was incubated at 37°C and the RFU reading was taken 15 minutes after.
There are two previously reported Km values for KLK5 and its substrate Boc-VPR-AMC which allowed the IC50 to Ki conversion. Ki values were calculated according to the Cheng-Prusoff equation Ki= IC50/1+[S]/Km for single site competitive binding.

KLK5 [3] = molecular target: T1, KLK5; test: KLK5 inhibition, fluorogenic Boc-VPR-AMC assay (S1 Table conditions); format: biochemical; conditions: KLK5 10 nM, Boc-VPR-AMC 41.6 μM, 1xPBS pH 8.0, 15 min on ice preincubation, read at 15 min, 25°C
Procedure: as §1, with “The excitation/emission wavelength was 360/460 nm for the substrate Boc-VPR-AMC (Bachem AG, Hauptstrasse, Switzerland) and MeOSuc-AAPV-AMC (Bachem AG, Hauptstrasse, Switzerland) and 485/520 nm for BODIPY_FL casein (Invitrogen, Carlsbad, US).” left out
as §2
The diluent for all the tested compounds, protein and substrate was 1xPBS pH 8.0. Zinc sulfate and p-aminobenzamidine were purchased from Sigma (Dorset, U.K.). […] The ligand-protein mixtures were incubated on ice for 15 minutes and 20 μL was transferred to a well of a 96-well microplate (ThermoScientific, Waltham, U.S.) in triplicate. […] Change in RFU was measured 15 minutes after substrate addition at 25°C.

| SMILES | penetration of the cornified layer of in vitro grown skin [1] | skin protease activity in epidermis (in-situ zymography) [1] | suppression of KLK5-induced IL-8 increase (N-tert skin cells) | IC50 (KLK5 [2]; KLK5 10 nM, Boc-VPR-AMC 41.6 μM, 1xPBS, one hour on ice preincubation, read at 15 min, 37°C) [nM] | Ki (KLK5 [2]; calculated from Table 2 IC50 by Cheng-Prusoff equation, read-out: Inhibitory Constant (Ki)) [nM] | IC50 (KLK5 [3]) [nM] |
| --- | --- | --- | --- | --- | --- | --- |
| CC[C@H](C)[C@@H]1NC(=O)[C@H](CO)NC(=O)[C@H](CCCNC(=N)N)NC(=O)[C@H]([C@@H](C)O)NC(=O)[C@@H]2CSSC[C@H](NC(=O)[C@H](Cc3c[nH]cn3)NC(=O)[C@@H]3CCCN3C(=O)[C@@H]3CCCN3C1=O)C(=O)N[C@@H](Cc1c[nH]c3ccccc13)C(=O)N1CCC[C@H]1C(=O)N[C@@H](CC(=O)O)C(=O)NCC(=O)N[C@@H](CCCNC(=N)N)C(=O)N2 [Analogue 6] (cyclo(CTRSIPPHCWPDGR); disulfide 1-9) | penetrated the cornified layer | weaker in the epidermis of the treated skin compared to untreated skin | suppress IL-8 increase up to 6 hours (p<0.05) but not 24 hours after stimulation; also recorded: delay the KLK5-induced IL-8 release by up to 6 hours but not for 24 hours |  |  |  |
| CC[C@H](C)[C@@H]1NC(=O)[C@H](CO)NC(=O)[C@H](CCCCN)NC(=O)[C@H]([C@@H](C)O)NC(=O)[C@@H]2CSSC[C@H](NC(=O)[C@H](Cc3c[nH]cn3)NC(=O)[C@@H]3CCCN3C(=O)[C@@H]3CCCN3C1=O)C(=O)N[C@@H](Cc1ccccc1)C(=O)N1CCC[C@H]1C(=O)N[C@@H](CC(=O)O)C(=O)NCC(=O)N[C@@H](CCCNC(=N)N)C(=O)N2 [Analogue I10H] (cyclo(CFPDGRCTKSIPPH); disulfide 1-7) |  |  |  | 352 ± 144 | 322 | 760 |
| CC[C@H](C)[C@@H]1NC(=O)[C@@H]2CCCN2C(=O)[C@@H]2CCCN2C(=O)[C@H]([C@@H](C)CC)NC(=O)[C@H](CO)NC(=O)[C@H](CCCCN)NC(=O)[C@H]([C@@H](C)O)NC(=O)[C@@H]2CSSC[C@H](NC1=O)C(=O)N[C@@H](Cc1ccccc1)C(=O)N1CCC[C@H]1C(=O)N[C@@H](CC(=O)O)C(=O)NCC(=O)N[C@@H](CCCNC(=N)N)C(=O)N2 [Native SFTI, Sunflower Trypsin Inhibitor 1, reference compound] |  |  |  |  |  | 300 |
